Assay results published in US11696938B2, “Human cancer cell metastasis inhibitory agent and human cancer cell determination agent” (priority 2017, dated 2023).

What was measured:
OV2944 cells [1] = experiment: Analysis of survival after cell transfer (Kaplan Meier); type: in vivo, mouse; settings: intraperitoneal, 3 nmoles/two days
Description: The purified OV2944 cells expressing the fluorescent protein tdTomato were transferred into the abdominal cavity of mice (B6C3F1 strain, 9 weeks old, female, CLEA Japan, Inc.) (1×10^5 cells/mouse). […] On Day 21, the abdominal organs were removed, and OV2944 cells expressing the fluorescent protein tdTomato in the liver were observed using a fluorescence stereomicroscope OV110 (Olympus Corporation).
Intraperitoneal injection was carried out in the same manner as in Experimental Example 13-1 and Experimental Example 13-2, and survival analysis was carried out thereafter to provide Experimental Example 14-1 and Experimental Example 14-2. For the survival curve according to the Kaplan Meier method, a significant difference was analyzed by log-rank test.

OV2944 cells [2] = experiment: Cell invasion assay (Matrigel Invasion Chamber); type: cell-based, mouse; settings: for cell invasion, ranking of suppression: 8 μM each, versus 10 μM BSA
Description: (§1) Cell invasion was analyzed using a BD BioCoat (registered trademark) Matrigel Invasion Chamber (Becton, Dickinson and Company). First, a certain amount of cells (about 1×10^5 cells/well) were treated with 2 μM, 8 μM, or 20 μM mouse dicalcin at room temperature for 20 minutes.
(§2) The treated cells were washed by centrifugation treatment, and then plated in the upper chamber of a transwell preliminarily coated with Matrigel, followed by performing culture using DMEM (+10% FBS) as a medium.
(§3) About 16 hours later, the invading cells that had migrated into the lower chamber were fixed using 4% paraformaldehyde/phosphate buffer at room temperature for 10 minutes, and then stained with crystal violet, followed by excision of the membrane, embedding on a slide, and counting of the cell number.

OV2944 cells [3] = experiment: Cell binding experiment (fluorescently labeled protein/peptide, confocal microscope); design: species or system mouse; settings: for cell-binding ability (fluorescence intensity): 5 μM rhodamine-labeled partial peptides, ranking
Description: The OV2944-HM-1 cell line (which may be referred to as “OV2944 cells” or, simply, “cells”), which is a commonly used cell line, was used. OV2944 cells were obtained from RIKEN BioResource Center (Cell No. RCB1483), and cultured in DMEM medium (+10% FBS) according to a conventional method.
Cultured cells were fixed on a glass plate (4% paraformaldehyde/phosphate buffer, room temperature, 10 minutes), and treated with sheep serum. Thereafter, mouse dicalcin (5 μM) fluorescently labeled with tetramethylrhodamine (TMR) was reacted with the cells in the presence of 1 mM CaCl2 (4° C., overnight). After washing with TBS buffer, analysis was carried out using a confocal microscope (Carl Zeiss). Further, cell nuclei were stained with DAPI.
An experiment was carried out in the same manner as in Experimental Example 1-1 except that the reaction was carried out in the presence of 1 mM EGTA (which may be referred to as “in the absence of calcium”).
An experiment was carried out in the same manner as in Experimental Example 1-1 except that immunostaining was carried out using an anti-mouse dicalcin antibody (Catalog No. MAB5167, R&D Systems) as a primary antibody, and an Alexa Fluor (registered trademark) 594-labeled anti-rat IgG antibody (Catalog No. A11007, Invitrogen) as a secondary antibody.
An experiment was carried out in the same manner as in Experimental Example 1-1 except that each of partial peptides p1 to p7 (5 μM) fluorescently labeled with rhodamine was used.

OV2944 cells [4] = experiment: Cell survival assay (crystal violet); type: cell-based, mouse; settings: 20 μM; versus 10 μM BSA
Description: (§4) First, a certain amount of cells (about 1×10^5 cells/well) were treated with 20 μM mouse dicalcin at room temperature for 20 minutes. The cells were then washed and aliquoted into a 96-well plate, followed by performing culture. One hour later, after washing with PBS buffer, the cells were fixed using 4% paraformaldehyde/phosphate buffer at room temperature for 10 minutes. The cells were then stained with crystal violet and solubilized, followed by measuring the absorbance (measurement wavelength, 550 nm) in order to analyze the cell survival rate. The cell survival rate was calculated as {(number of stained cells)/(number of plated cells)}×100(%). Normalization was carried out by the later-mentioned result of Experimental Example 4-2, which was taken as 100(%).
An experiment was carried out in the same manner as in Experimental Example 4-1 except that 10 μM BSA was used instead of mouse dicalcin.

OV2944 cells [5] = experiment: Cell adhesion assay (Matrigel); type: cell-based, mouse; settings: 8 or 20 μM
Description: First, a certain amount of cells (about 1×10^5 cells/well) were treated with 8 μM or 20 μM mouse dicalcin at room temperature for 20 minutes. After coating a 24-well plate with, and allowing gelation of, BD Matrigel (registered trademark) (Becton, Dickinson and Company), the pretreated cells were washed and plated therein.
About 1 hour later, nonadherent cells were aspirated. After washing, adherent cells were fixed using 4% paraformaldehyde/phosphate buffer at room temperature for 10 minutes, and then stained with crystal violet, followed by counting of the cell number. The adhesion index was calculated as {(number of stained cells)/(number of plated cells)}×100(%). Normalization was carried out by the later-mentioned result of Experimental Example 3-2, which was taken as 100(%).
An experiment was carried out in the same manner as in Experimental Example 3-1 except that mouse dicalcin was not added.
An experiment was carried out in the same manner as in Experimental Example 3-1 except that 10 μM BSA was used instead of mouse dicalcin.

OVCAR cells [6] = experiment: Cell invasion assay; type: cell-based, human
Description: as §1, §2
as §3, with “number. The invasion index was calculated as {(number of stained cells)/(number of plated cells)}×100(%), and normalized by the later-mentioned result of Experimental Example 2-2, which was taken as 100(%).” for “number.”
The OVCAR-3 cell line (which may be referred to as “OVCAR cells” or, simply, “cells”), which is a commonly used cell line, was used. OVCAR cells were obtained from RIKEN BioResource Center (Cell No. RCB2135), and cultured in DMEM medium (+10% FBS) according to a conventional method. This line is a human ovarian cancer (adenocarcinoma)-derived cell line.
An analysis was carried out in the same manner as in Experimental Example 2-1 except that OVCAR cells were used as the cells, and that 8 μM or 20 μM human dicalcin was used instead of mouse dicalcin.
An analysis was carried out in the same manner as in Experimental Example 9-1 except that 20 μM BSA was used instead of human dicalcin.
An analysis was carried out in the same manner as in Experimental Example 2-1 except that OVCAR cells were used as the cells, and that 2 μM or 10 μM hDC-p6 was used as a partial peptide. Statistical analysis was carried out by unpaired Student t-test in order to analyze a significant difference.

OVCAR cells [7] = experiment: Cell survival assay; type: cell-based, human; settings: 20 μM; versus 10 μM BSA
Description: as §4
An experiment was carried out in the same manner as in Experimental Example 4-1 except that OVCAR cells were used as the cells, and that 20 μM human dicalcin was used instead of mouse dicalcin.
An experiment was carried out in the same manner as in Experimental Example 10-1 except that 10 μM BSA was used instead of human dicalcin.

## p1: partial peptide of mouse dicalcin, SEQ ID NO: 12, PTETERCIE; used as control peptide (listed as Mus musculus)
OV2944 cells [1]
  average number of days of survival: 32 days

## p2: partial peptide of mouse dicalcin, SEQ ID NO: 13, SLIAVFQKY (listed as Mus musculus)
OV2944 cells [2]
  cell invasion, ranking of suppression: followed by p2, p′7, and p5 in this order
OV2944 cells [3]
  cell-binding ability (fluorescence intensity): second highest cell-binding ability

## p4: partial peptide of mouse dicalcin, SEQ ID NO: 15, MNTELAAFTKNQKDPGVLDR (listed as Mus musculus)
OV2944 cells [3]
  cell-binding ability (fluorescence intensity): third highest cell-binding ability

## p5: partial peptide of mouse dicalcin, SEQ ID NO: 16, MMKKLDLNCDG (listed as Mus musculus)
OV2944 cells [2]
  cell invasion, ranking of suppression: followed by p2, p′7, and p5 in this order
OV2944 cells [3]
  cell-binding ability (fluorescence intensity): second highest cell-binding ability

## p7: partial peptide of mouse dicalcin, SEQ ID NO: 18, GGLAIACHDSFIQTSQKRI (listed as Mus musculus)
OV2944 cells [2]
  cell invasion, ranking of suppression: followed by p2, p′7, and p5 in this order
OV2944 cells [3]
  cell-binding ability (fluorescence intensity): second highest cell-binding ability

B1: mouse dicalcin: recombinant full-length mouse dicalcin (S100A11), SEQ ID NO:11, expressed in E. coli (protein, listed as Mus musculus)
chain: PTETERCIESLIAVFQKYSGKDGNNTQLSKTEFLSFMNTELAAFTKNQKDPGVLDRMMKKLDLNCDGQLDFQEFLNLIGGLAIACHDSFIQTSQKRI
OV2944 cells [4]
  cell survival rate: does not affect the survival of the cells
OV2944 cells [2]; 2, 8 or 20 μM, normalized to 10 μM BSA
  cell invasion (invasion index): suppresses the cell invasion in a concentration-dependent manner
OV2944 cells [3]; 5 μM TMR-labeled, 1 mM CaCl2 versus 1 mM EGTA
  binding to the cells (fluorescence): larger amount of mouse dicalcin binds to the cells in the presence of calcium
OV2944 cells [5]
  cell adhesion (adhesion index): suppresses the cell adhesion in a concentration-dependent manner

B2: human dicalcin: recombinant full-length human dicalcin (S100A11), SEQ ID NO:1 (protein, listed as Homo sapiens)
chain: AKISSPTETERCIESLIAVFQKYAGKDGYNYTLSKTEFLSFMNTELAAFTKNQKDPGVLDRMMKKLDTNSDGQLDFSEFLNLIGGLAMACHDSFLKAVPSQKRT
OVCAR cells [6]; 20 μM, normalized to BSA as 100%
  invasion index: 43.9%
OVCAR cells [6]; 8 or 20 μM human dicalcin, versus 20 μM BSA
  cell invasion (invasion index): suppresses the cell invasion in a concentration-dependent manner
OVCAR cells [7]
  cell survival rate: does not affect the survival of the cells
